Test results taken from PMC6324581 (Peptide science (Hoboken, N.J.), 2018).
≈ marks a conversion by molar mass, not a printed value. Square brackets hold non-standard residues; d marks the D form. Ends that are not written are not given here. Peptide text beside a SMILES is read from it. Dap = NC[C@H](N)C(=O)O

Columns and labels:
E. coli D31 = assay type: cell-based; settings: Mueller Hinton broth, ~10^5 CFU/mL, 18 hours at 37°C, OD600, lowest concentration with no visible growth, average of 3 independent samples
[1] = test system: P. aeruginosa (ATCC:10145); assay type: cell-based; settings: ATCC:10145, 18 h
[2] = test system: K. pneumonia (ATCC: 700603); assay type: cell-based, K. pneumoniae; settings: 18 h
S. aureus (ATCC: 27660) = assay type: cell-based; settings: ATCC: 27660, 18 h

CC[C@H](C)[C@H](NC(=O)CNC(=O)[C@H](CN)NC(=O)[C@H](Cc1ccccc1)NC(=O)[C@H](CC(C)C)NC(=O)[C@H](CN)NC(=O)[C@H](CN)NC(=O)[C@H](C)NC(=O)[C@H](CN)NC(=O)[C@H](CN)NC(=O)[C@H](Cc1ccccc1)NC(=O)CNC(=O)[C@H](CN)NC(=O)[C@H](C)NC(=O)[C@H](Cc1c[nH]c2ccccc12)NC(=O)[C@@H](NC(=O)[C@H](CN)NC(=O)[C@@H](NC(=O)[C@H](CC(C)C)NC(=O)[C@H](CN)NC(=O)[C@@H](N)CN)[C@@H](C)CC)C(C)C)C(=O)NCC(=O)O [PBP-X] (H-[Dap][Dap]LI[Dap]VWA[Dap]GF[Dap][Dap]A[Dap][Dap]LF[Dap]GIG-OH)
MIC (E. coli D31): 1.88 µM (≈ 4.02 µg/mL) | MIC [1]: 3.75 µM (≈ 8.02 µg/mL)

KKAAKAWAKGAKKAKKLAKGAG [PBP-A]
MIC [2]: >15 µM | MIC (E. coli D31): >15 µM | MIC [1]: >15 µM

KKLIKVFAKGFKKAKKLWKGIG [PBP-W18]
MIC [2]: 1.88 µM | MIC (S. aureus (ATCC: 27660)): 0.94 µM | MIC [1]: 1.88 µM

KKLIKVFAKGWKKAKKLFKGIG [PBP-W11]
MIC [2]: 1.88 µM | MIC (S. aureus (ATCC: 27660)): 0.47 µM | MIC [1]: 1.88 µM

KKLIKVWAKGFKKAKKLFKGIG [PBP]
MIC [2]: 1.88 µM | MIC (S. aureus (ATCC: 27660)): 0.94 µM | MIC (E. coli D31): 0.94 µM | MIC [1]: 1.88 µM
